Assay results: US9695155B2, “Herbicidal substituted pyrimidinyloxy benzene compounds” (E. I. DU PONT DE NEMOURS AND COMPANY, priority 2013, dated 2017)

Key:
[1] = test system: kochia; test: Test A postemergence; format: in vivo, Kochia scoparia; conditions: 0 to 100 scale where 0 is no effect and 100 is complete control
Outline: (§1)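 Compounds in non-phytotoxic solvent with surfactant applied as soil spray preemergence, or postemergence to plants 2-10 cm at one- to two-leaf stage, in loam/sand. After approximately 10 days in greenhouse, injury rated visually versus untreated controls, 0 (no effect) to 100 (complete control).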

[2] = test system: barnyardgrass; test: Test A postemergence; format: in vivo, Echinochloa crus-galli
Outline: as §1

[3] = test system: wheat; test: Test A postemergence; format: in vivo, Triticum aestivum; conditions: 0 to 100 scale where 0 is no effect and 100 is complete control
Outline: as §1

[4] = test system: Italian ryegrass; test: Test C preemergence; format: in vivo, Lolium multiflorum; conditions: for Ryegrass, Italian plant response rating: preemergence; for Plant response rating, Ryegrass, Italian: Preemergence, 31 g ai/ha, scale 0 to 100, 0 no effect, 100 complete control
Outline: (§2)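 Seeds were sown in loam–sand blend and sprayed preemergence, while plants at 1- to 4-leaf stage (2–18 cm) in peat-based medium received postemergence sprays; test chemicals were formulated in a non-phytotoxic solvent with surfactant. After 13–15 days in a greenhouse, injury was rated visually against controls, 0 (no effect) to 100 (complete control).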

[5] = test system: yellow nutsedge; test: Test C preemergence; format: in vivo, Cyperus esculentus; conditions: for Nutsedge, Yellow plant response rating: preemergence; for Plant response rating, Nutsedge, Yellow: Preemergence, 31 g ai/ha, scale 0 to 100, 0 no effect, 100 complete control
Outline: as §2

[6] = test system: morningglory; test: Test C preemergence; format: in vivo, Ipomoea coccinea; conditions: for Morningglory plant response rating: preemergence; for Plant response rating, Morningglory: Preemergence, 31 g ai/ha, scale 0 to 100, 0 no effect, 100 complete control
Outline: as §2

[7] = test system: soybean; test: Test C preemergence; format: in vivo, Glycine max; conditions: for Soybean plant response rating: preemergence; for Plant response rating, Soybean: Preemergence, 31 g ai/ha, scale 0 to 100, 0 no effect, 100 complete control
Outline: as §2

[8] = test system: johnsongrass; test: Test C preemergence; format: in vivo, Sorghum halepense; conditions: for Johnsongrass plant response rating: preemergence; for Plant response rating, Johnsongrass: Preemergence, 31 g ai/ha, scale 0 to 100, 0 no effect, 100 complete control
Outline: as §2

[9] = test system: barnyardgrass; test: Test C preemergence; format: in vivo, Echinochloa crus-galli; conditions: for Barnyardgrass plant response rating: preemergence; for Plant response rating, Barnyardgrass: Preemergence, 31 g ai/ha, scale 0 to 100, 0 no effect, 100 complete control
Outline: as §2

[10] = test system: Italian ryegrass; test: Test A postemergence; format: in vivo, Lolium multiflorum; conditions: 0 to 100 scale where 0 is no effect and 100 is complete control
Outline: as §1

[11] = test system: oilseed rape; test: Test C postemergence; format: in vivo, Brassica napus; conditions: for Plant response rating, Oilseed Rape: Postemergence, scale 0 to 100 (0 no effect, 100 complete control)
Outline: as §2

[12] = test system: ragweed; test: Test A postemergence; format: in vivo, Ambrosia elatior; conditions: 0 to 100 scale where 0 is no effect and 100 is complete control
Outline: as §1

[13] = test system: giant foxtail; test: Test A postemergence; format: in vivo, Setaria faberii; conditions: 0 to 100 scale where 0 is no effect and 100 is complete control
Outline: as §1

[14] = test system: ragweed; test: Test C preemergence; format: in vivo, Ambrosia elatior; conditions: for Ragweed plant response rating: preemergence; for Plant response rating, Ragweed: Preemergence, 31 g ai/ha, scale 0 to 100, 0 no effect, 100 complete control
Outline: as §2

[15] = test system: oilseed rape; test: Test C preemergence; format: in vivo, Brassica napus; conditions: for Oilseed Rape plant response rating: preemergence; for Plant response rating, Oilseed Rape: Preemergence, 31 g ai/ha, scale 0 to 100, 0 no effect, 100 complete control
Outline: as §2

[16] = test system: blackgrass; test: Test C postemergence; format: in vivo, Alopecurus myosuroides; conditions: for Plant response rating, Blackgrass: Postemergence
Outline: as §2

[17] = test system: blackgrass; test: Test C preemergence; format: in vivo, Alopecurus myosuroides; conditions: for Blackgrass plant response rating: preemergence; for Plant response rating, Blackgrass: Preemergence, 31 g ai/ha, scale 0 to 100, 0 no effect, 100 complete control
Outline: as §2

[18] = test system: large (Lg) crabgrass; test: Test C postemergence; format: in vivo, Digitaria sanguinalis; conditions: for Plant response rating, Crabgrass, Large: Postemergence
Outline: as §2

[19] = 125 g ai/ha, 0 to 100 scale where 0 is no effect and 100 is complete control
[20] = 16 g ai/ha, scale 0 to 100 (0 no effect, 100 complete control)
[21] = 62 g ai/ha, scale 0 (no effect) to 100 (complete control)
[22] = 125 g ai/ha, scale 0 (no effect) to 100 (complete control)
[23] = 16 g ai/ha, postemergence, visual rating, scale 0 to 100 (0 no effect, 100 complete control), 13 to 15 days
[24] = 31 g ai/ha, scale 0 to 100 (0 no effect, 100 complete control), 13 to 15 days
[25] = 62 g ai/ha, scale 0 to 100 (0 no effect, 100 complete control)
[26] = 8 g ai/ha, scale 0 to 100 (0 no effect, 100 complete control)

CC(C)c1cnn(-c2c(C#N)cccc2Oc2ncc(Cl)cn2)c1 [Compound 85]
Plant response rating, Kochia ([1]; 125 g ai/ha): 70
Plant response rating, Kochia ([1]; 500 g ai/ha): 100
Plant response rating, Barnyardgrass [2, 19]: 90
Plant response rating, Barnyardgrass ([2]; 500 g ai/ha, 0 to 100 scale, 0 no effect, 100 complete control): 90
Plant response rating, Wheat ([3]; 125 g ai/ha): 0
Plant response rating, Wheat ([3]; 500 g ai/ha): 70
Ryegrass, Italian plant response rating [4, 20]: 0
Ryegrass, Italian plant response rating [4, 21]: 0
Ryegrass, Italian plant response rating [4, 22]: 50
Plant response rating, Ryegrass, Italian [4]: 0
Nutsedge, Yellow plant response rating [5, 20]: 0
Nutsedge, Yellow plant response rating [5, 21]: 5
Nutsedge, Yellow plant response rating [5, 22]: 20
Plant response rating, Nutsedge, Yellow [5]: 0
Morningglory plant response rating [6, 20]: 0
Morningglory plant response rating [6, 21]: 0
Morningglory plant response rating [6, 22]: 20
Plant response rating, Morningglory [6]: 0
Soybean plant response rating [7, 20]: 0
Soybean plant response rating [7, 21]: 40
Soybean plant response rating [7, 22]: 60
Plant response rating, Soybean [7]: 15
Johnsongrass plant response rating [8, 20]: 15
Johnsongrass plant response rating [8, 21]: 55
Johnsongrass plant response rating [8, 22]: 85
Plant response rating, Johnsongrass [8]: 20
Barnyardgrass plant response rating [9, 20]: 0
Barnyardgrass plant response rating [9, 21]: 75
Barnyardgrass plant response rating [9, 22]: 95
Plant response rating, Barnyardgrass [9]: 15
Plant response rating, Ryegrass, Italian ([10]; 125 g ai/ha): 60
Plant response rating, Ryegrass, Italian ([10]; 500 g ai/ha): 100
Plant response rating (0 to 100), Oilseed Rape ([11]; 125 g ai/ha, postemergence): 15
Plant response rating, Oilseed Rape ([11]; 31 g ai/ha, 13 to 15 days): 5
Plant response rating, Oilseed Rape ([11]; 62 g ai/ha): 30
Plant response rating, Ragweed ([12]; 125 g ai/ha): 50
Plant response rating, Ragweed ([12]; 500 g ai/ha): 60
Plant response rating, Foxtail, Giant ([13]; 125 g ai/ha): 70
Plant response rating, Foxtail, Giant ([13]; 500 g ai/ha): 90
Ragweed plant response rating [14, 20]: 0
Ragweed plant response rating [14, 21]: 50
Ragweed plant response rating [14, 22]: 65
Plant response rating, Ragweed [14]: 0
Oilseed Rape plant response rating [15, 20]: 0
Oilseed Rape plant response rating [15, 21]: 90
Oilseed Rape plant response rating [15, 22]: 98
Plant response rating, Oilseed Rape [15]: 40
Blackgrass plant response rating [16, 23]: 0
Plant response rating (0 to 100), Blackgrass ([16]; 125 g ai/ha, postemergence): 10
Plant response rating, Blackgrass [16, 24]: 0
Plant response rating, Blackgrass [16, 25]: 5
Blackgrass plant response rating [17, 20]: 0
Blackgrass plant response rating [17, 21]: 10
Blackgrass plant response rating [17, 22]: 90
Plant response rating, Blackgrass [17]: 5
Crabgrass, Large plant response rating [18, 23]: 10
Plant response rating (0 to 100), Crabgrass, Large ([18]; 125 g ai/ha, postemergence): 10
Plant response rating, Crabgrass, Large [18, 24]: 10
Plant response rating, Crabgrass, Large [18, 25]: 5

N#Cc1cnn(-c2c(C#N)cccc2Oc2ncc(Br)cn2)c1 [Compound 135]
Kochia plant response rating ([1]; 125 g ai/ha): 20
Plant response rating, Kochia ([1]; 500 g ai/ha): 70
Barnyardgrass plant response rating [2, 19]: 40
Plant response rating, Barnyardgrass ([2]; 500 g ai/ha, 0 to 100 scale where 0 is no effect and 100 is complete control): 100
Wheat plant response rating ([3]; 125 g ai/ha): 10
Plant response rating, Wheat ([3]; 500 g ai/ha): 60
Ryegrass, Italian plant response rating [4, 26]: 0
Ryegrass, Italian plant response rating [4, 20]: 0
Ryegrass, Italian plant response rating [4, 21]: 10
Plant response rating, Ryegrass, Italian [4]: 5
Nutsedge, Yellow plant response rating [5, 26]: 0
Nutsedge, Yellow plant response rating [5, 20]: 0
Nutsedge, Yellow plant response rating [5, 21]: 15
Plant response rating, Nutsedge, Yellow [5]: 0
Morningglory plant response rating [6, 26]: 5
Morningglory plant response rating [6, 20]: 50
Morningglory plant response rating [6, 21]: 80
Plant response rating, Morningglory [6]: 50
Soybean plant response rating [7, 26]: 10
Soybean plant response rating [7, 20]: 20
Soybean plant response rating [7, 21]: 85
Plant response rating, Soybean [7]: 65
Johnsongrass plant response rating [8, 26]: 0
Johnsongrass plant response rating [8, 20]: 0
Johnsongrass plant response rating [8, 21]: 45
Plant response rating, Johnsongrass [8]: 5
Barnyardgrass plant response rating [9, 26]: 0
Barnyardgrass plant response rating [9, 20]: 0
Barnyardgrass plant response rating [9, 21]: 60
Plant response rating, Barnyardgrass [9]: 15
Ryegrass, Italian plant response rating ([10]; 125 g ai/ha): 20
Plant response rating, Ryegrass, Italian ([10]; 500 g ai/ha): 70
Ragweed plant response rating ([12]; 125 g ai/ha): 60
Plant response rating, Ragweed ([12]; 500 g ai/ha): 100
Foxtail, Giant plant response rating ([13]; 125 g ai/ha): 70
Plant response rating, Foxtail, Giant ([13]; 500 g ai/ha): 100
Ragweed plant response rating [14, 26]: 0
Ragweed plant response rating [14, 20]: 40
Ragweed plant response rating [14, 21]: 65
Plant response rating, Ragweed [14]: 55
Oilseed Rape plant response rating [15, 26]: 30
Oilseed Rape plant response rating [15, 20]: 55
Oilseed Rape plant response rating [15, 21]: 95
Plant response rating, Oilseed Rape [15]: 95
Blackgrass plant response rating [17, 26]: 0
Blackgrass plant response rating [17, 20]: 0
Blackgrass plant response rating [17, 21]: 20
Plant response rating, Blackgrass [17]: 5
